Legend:
[1] = Study 1: safety assessment (TEAEs, laboratory tests, ECG); format: in vivo, human; settings: for QTc interval - change from baseline Borderline: Incr. from B 30-60 ms / QTc interval - change from baseline Prolonged: Incr. from B > 60 ms / QTc interval Prolonged: > 450 ms (m); > 470 ms (f) / QTc interval ≥ 500 ms: TEAE period
Description: Follow-up visits were done on day 6, 8, 14 ± 2, 21 ± 2, 28 ± 2 (Study 1); and day 7, 14 ± 2, 21 ± 2, 28 ± 2 (Study 2). […] Parasitemia was determined microscopically by Giemsa stained thick blood smear by two trained microscopists blinded to each other. […] For Study 2 respiratory parameters (respiratory rate, peak flow, efficiency of cough) were also checked at baseline and 30 min after first dose on day 1, 2 and 3.
Treatment emergent adverse events (TEAEs) were defined as AEs that developed or worsened during the treatment period until day 6 following the end of study treatment.

malaria monkey model = test system: malaria monkey model; parameters: method as in PMID 11847346, PMID 15492221, PMID 12878525; settings: cited from earlier work
[2] = ref unpublished data owned by Sanofi, cited from earlier work
[3] = Group 1A, one patient, three days after study medication
[4] = Group 1A: 1 day IM 0.18 mg/kg, adults, N=34
[5] = Group 1A: 1 day IM 0.18 mg/kg, adults
[6] = Group 1B: 3 days IM 0.18 mg/kg, adults, N=30
[7] = Group 1B: 3 days IM 0.18 mg/kg, adults
[8] = Group 1C: 1 day IV 0.14 mg/kg, adults, N=30
[9] = Group 1C: 1 day IV 0.14 mg/kg, adults
[10] = Group 1D: 3 days IM 0.18 mg/kg, children, N=19
[11] = Group 1D: 3 days IM 0.18 mg/kg, children
[12] = after single IM administration of 36 mg, phase 1

In the case of `Cc1c(CCO)sc[n+]1CCCCCCCCCCCC[n+]1csc(CCO)c1C` [SAR97276A], the “ALT increase in the patient with cytolytic hepatitis” value [1, 3] is reported as 4.5 × upper limit than normal (ULN), the “AST increase in the patient with cytolytic hepatitis” value [1, 3] is reported as 11 × ULN and the “Total bilirubin in the patient with cytolytic hepatitis” value [1, 3] is reported as ≥ 1.5 × ULN. The “Patients who did not complete study treatment” value [1, 4] was 0, the “Patients with any TEAE” value [1, 4] was 18 (52.9%) and the “TEAE: Arthralgia” value [1, 4] was 1 (2.9%). The “TEAE: Convulsion” value [1, 4] was 0, the “TEAE: Cough” value [1, 4] was 2 (5.9%) and the “TEAE: Cytolytic hepatitis” value [1, 4] was 1 (2.9%). For the same molecule, the “TEAE: Dizziness” value [1, 4] was 1 (2.9%), the “TEAE: Eyelid pruritus” value [1, 4] was 0 and the “TEAE: Gastrointestinal disorders” value [1, 4] was 3 (8.8%). The “TEAE: General Disorders/Administration site disorders” value [1, 4] was 3 (8.8%), the “TEAE: Headache” value [1, 4] was 4 (11.8%) and the “TEAE: Hypertension” value [1, 4] was 0. For the same molecule, the “TEAE: Malaria” value [1, 4] was 2 (5.9%), the “TEAE: Neck pain” value [1, 4] was 2 (5.9%) and the “TEAE: Paraesthesia” value [1, 4] was 0. For the same molecule, the “TEAE: Pneumonia” value [1, 4] was 1 (2.9%), the “TEAE: Pruritus” value [1, 4] was 0 and the “TEAE: Rhinitis” value [1, 4] was 2 (5.9%). The “TEAE: Thrombocytopenia” value [1, 4] was 0, the “TEAE: Urticaria” value [1, 4] was 1 (2.9%) and the “TEAE: Vertigo” value [1, 4] was 2 (5.9%). For the same molecule, the “QTc interval - change from baseline Borderline: Incr. from B 30-60 ms” value (“QTc interval - change … from B 30-60 ms” below) [1, 5] was 0/33, the “QTc interval - change from baseline Prolonged: Incr. from B > 60 ms” value (shortened to “QTc interval - change … from B > 60 ms”) [1, 5] was 0/33 and the “QTc interval Prolonged: > 450 ms (m); > 470 ms (f)” value (“QTc interval Prolonged: > 450 ms” below) [1, 5] was 0/33. For the same molecule, the “QTc interval ≥ 500 ms” value [1, 5] was 0/33, the “Further patients with an elevated AST (> 3 x ULN), apart from the SAE patient” value ([1]; Group 1A: adults, single IM dose) was “one” and the “Patients who did not complete study treatment” value [1, 6] was 0. For the same molecule, the “Patients with any TEAE” value [1, 6] was 18 (60%), the “Patients with any serious AE” value [1, 6] was 0 and the “TEAE: Bradycardia” value [1, 6] was 0. The “TEAE: Convulsion” value [1, 6] was 0, the “TEAE: Cough” value [1, 6] was 2 (6.7%) and the “TEAE: Cytolytic hepatitis” value [1, 6] was 0. For the same molecule, the “TEAE: Dizziness” value [1, 6] was 1 (3.3%), the “TEAE: Eyelid pruritus” value [1, 6] was 0 and the “TEAE: Gastrointestinal disorders” value [1, 6] was 7 (23.3%). For the same molecule, the “TEAE: General Disorders/Administration site disorders” value [1, 6] was 1 (3.3%), the “TEAE: Headache” value [1, 6] was 4 (13.3%) and the “TEAE: Hypertension” value [1, 6] was 1 (3.3%). The “TEAE: Malaria” value [1, 6] was 0, the “TEAE: Neck pain” value [1, 6] was 1 (3.3%) and the “TEAE: Paraesthesia” value [1, 6] was 1 (3.3%). The “TEAE: Pneumonia” value [1, 6] was 0, the “TEAE: Pruritus” value [1, 6] was 1 (3.3%) and the “TEAE: Rhinitis” value [1, 6] was 0. The “TEAE: Tachycardia” value [1, 6] was 1 (3.3%), the “TEAE: Thrombocytopenia” value [1, 6] was 0 and the “TEAE: Urticaria” value [1, 6] was 0. The “TEAE: Vertigo” value [1, 6] was 2 (6.7%), the “QTc interval - change … from B 30-60 ms” value [1, 7] was 0/30 and the “QTc interval - change … from B > 60 ms” value [1, 7] was 0/30. The “QTc interval Prolonged: > 450 ms” value [1, 7] was 0/30, the “QTc interval ≥ 500 ms” value [1, 7] was 0/30 and the “Patients who did not complete study treatment” value [1, 8] was 0. For the same molecule, the “Patients with any TEAE” value [1, 8] was 14 (46.7%), the “Patients with any serious AE” value [1, 8] was 0 and the “TEAE: Arthralgia” value [1, 8] was 1 (3.3%). For the same molecule, the “TEAE: Bradycardia” value [1, 8] was 0, the “TEAE: Convulsion” value [1, 8] was 0 and the “TEAE: Cough” value [1, 8] was 1 (3.3%). For the same molecule, the “TEAE: Cytolytic hepatitis” value [1, 8] was 0, the “TEAE: Dizziness” value [1, 8] was 2 (6.7%) and the “TEAE: Eyelid pruritus” value [1, 8] was 0. The “TEAE: Gastrointestinal disorders” value [1, 8] was 1 (3.3%), the “TEAE: General Disorders/Administration site disorders” value [1, 8] was 0 and the “TEAE: Headache” value [1, 8] was 3 (10%). For the same molecule, the “TEAE: Hypertension” value [1, 8] was 0, the “TEAE: Malaria” value [1, 8] was 0 and the “TEAE: Neck pain” value [1, 8] was 0. For the same molecule, the “TEAE: Paraesthesia” value [1, 8] was 0, the “TEAE: Pneumonia” value [1, 8] was 0 and the “TEAE: Pruritus” value [1, 8] was 0. For the same molecule, the “TEAE: Rhinitis” value [1, 8] was 0, the “TEAE: Tachycardia” value [1, 8] was 0 and the “TEAE: Thrombocytopenia” value [1, 8] was 0. The “TEAE: Urticaria” value [1, 8] was 0, the “TEAE: Vertigo” value [1, 8] was 0 and the “QTc interval - change … from B > 60 ms” value [1, 9] was 0/30. The “QTc interval Prolonged: > 450 ms” value [1, 9] was 0/30, the “QTc interval ≥ 500 ms” value [1, 9] was 0/30 and the “Patients with any TEAE” value [1, 10] was 11 (57.9%). The “TEAE: Arthralgia” value [1, 10] was 0, the “TEAE: Bradycardia” value [1, 10] was 0 and the “TEAE: Convulsion” value [1, 10] was 1 (5.3%). The “TEAE: Cough” value [1, 10] was 1 (5.3%), the “TEAE: Cytolytic hepatitis” value [1, 10] was 0 and the “TEAE: Dizziness” value [1, 10] was 0. The “TEAE: Eyelid pruritus” value [1, 10] was 1 (5.3%), the “TEAE: Gastrointestinal disorders” value [1, 10] was 5 (26.3%) and the “TEAE: General Disorders/Administration site disorders” value [1, 10] was 1 (5.3%). The “TEAE: Headache” value [1, 10] was 3 (15.8%), the “TEAE: Hypertension” value [1, 10] was 0 and the “TEAE: Malaria” value [1, 10] was 0. For the same molecule, the “TEAE: Neck pain” value [1, 10] was 0, the “TEAE: Paraesthesia” value [1, 10] was 0 and the “TEAE: Pneumonia” value [1, 10] was 0. The “TEAE: Pruritus” value [1, 10] was 0, the “TEAE: Rhinitis” value [1, 10] was 0 and the “TEAE: Tachycardia” value [1, 10] was 0. For the same molecule, the “TEAE: Urticaria” value [1, 10] was 0, the “TEAE: Vertigo” value [1, 10] was 0 and the “QTc interval - change … from B 30-60 ms” value [1, 11] was 0/18. For the same molecule, the “QTc interval - change … from B > 60 ms” value [1, 11] was 0/18, the “QTc interval Prolonged: > 450 ms” value [1, 11] was 0/18 and the “QTc interval ≥ 500 ms” value [1, 11] was 0/18. For the same molecule, the Deaths ([1]; Study 1) was “No deaths”, the “ECG abnormalities, clinical significance” value ([1]; Study 1) was “No clinical significant abnormalities” and the “Ophthalmologic disorders possibly related to SAR97276A” value ([1]; Study 1) was “No ophthalmologic disorders”. The “Participants with alkaline phosphatase elevated (> 1.5 x ULN)” value ([1]; Study 1) was 19, the “SAEs regarded as related to SAR97276A by the investigators” value ([1]; Study 1) was “None” and the Tolerability ([1]; Study 1) was “well tolerated”. The “Patients with a serious adverse event (SAE), total” value ([1]; Study 1, all groups) was “four”, the “Patients who experienced a TEAE, all cohorts” value ([1]; Study 1, out of 113 patients) was 61 (54%) and the “Efficacy in malaria monkey model” value (malaria monkey model) was “highly efficacious”. The “Terminal half-life in plasma” value [2, 12] was 5.5 h, the “Terminal half-life in whole blood” value [2, 12] was 73 h and the “Participants with an AE of severe intensity (ophthalmologic problems, temporary decrease in visual acuity), considered drug related” value ([2]; multiple administrations of 18 mg twice daily IM, phase 1) was “one”. For the same molecule, the “Participants with AEs of severe intensity (severe abdominal spasm)” value ([2]; multiple doses of 12.8 mg IV, phase 1) was “two”, the “Highest tolerated dose for twice daily IM administration for 3 days” value ([2]; phase 1) was 18 mg and the “Tolerability in three phase 1 clinical trials” value ([2]; single doses 0.2–12.8 mg IV, 3.2–36 mg IM) was “well tolerated”.
